Measurements from US4229448A, “5-Substituted picolinic acid derivatives and an anti-hypertensive composition containing the same” (Meuji Seika Kaisha Ltd., priority 1978, dated 1980).
Counter-ions that a name gives are not always drawn.

Key:
[1] = tested on: spontaneously hypertensive rats; test: Blood pressure changes, Direct Blood Pressure Measuring Method, oral administration (Table 1); type: in vivo; conditions: Rattus norvegicus, read-out: Maximum Depression in Blood Pressure
Experimental: Each of the compounds of the invention as indicated below was suspended in a 5% aqueous gum arabic solution and the suspension was administered orally (100 mg/kg) to groups consisting of three spontaneously hypertensive rats (18-23 week old; blood pressure before administration: 170-190 mmHg).

[2] = Acute toxicity (LD50), intraperitoneal (Table 1); type: in vivo; conditions: mouse, in vivo, ip, male ICR mice, 5 week old, observed 1 week after administration
[3] = tested on: male mice (ICR strain, 5 week old); test: Acute toxicity (LD50), intraperitoneal (Table 1); type: in vivo; conditions: observed 1 week after administration, 10080 min
[4] = tested on: spontaneously hypertensive rats; test: Blood pressure changes, Tail Cuff Method, oral administration (Table 2); type: in vivo; conditions: Rattus norvegicus, 100 mg/kg orally, read-out: Maximum Depression in Blood Pressure
Experimental: Each of the compounds of the invention as indicated below was suspended in a 5% aqueous gum arabic solution and the suspension was administered orally to groups consisting of three spontaneously hypertensive rats (17-23 week old; blood pressure before administration: 170-190 mmHg).

Oral LD50 = conditions: in vivo
Water solubility = type: physicochemical; conditions: suited for subcutaneous injection
[5] = prior art; cited from earlier work
[6] = prior art; cited from earlier work; remark: listed apart in the source
[7] = 100 mg/kg orally, spontaneously hypertensive rats, Direct Blood Pressure Measuring Method

| SMILES | inhibition in vivo at 100 mg/kg [1, 7] | LD50 at 168 h [2] | also measured |
| --- | --- | --- | --- |
| O=C(O)c1ccc(Oc2ccc([N+](=O)[O-])cc2)cn1 [5-(p-Nitrophenoxy)picolinic Acid, 5-(p-nitrophenoxy)picolinic acid] | 15.1% | 500 to 600 mg/kg |  |
| O=C(O)c1ccc(OCCCCC(F)(F)F)cn1 [5-(5,5,5-Trifluoropentyloxy)picolinic Acid] [5-(5,5,5-trifluoropentyloxy)picolinicacid] |  |  | Acute Toxicity (LD50) [3]: 150 to 200 mg/kg |
| O=C(Oc1ccc2c(c1)CCC2)c1ccc(OCCCCCl)cn1 [5-indanyl ester of 5-(4-chlorobutoxy)picolinic acid] |  |  | inhibition in vivo at 100 mg/kg [4]: 26.3%; LD50 (Oral LD50): 1600 to 1800 mg/kg |
| COc1ccc(Oc2ccc(C(=O)O)nc2)c(OC)c1 [5-(2,4-Dimethoxyphenoxy)picolinic Acid] | 19.2% | 400 to 450 mg/kg |  |
| O=C(Oc1ccc2c(c1)CCC2)c1ccc(Oc2ccccc2Cl)cn1 [indanyl ester of 5-(o-chlorophenoxy)picolinic acid] |  |  | inhibition in vivo at 100 mg/kg [4]: 29% |
| O=C(O)c1ccc(Oc2ccc(Cl)cc2)cn1 [Calcium Salt of 5-(p-Chlorophenoxy)picolinic Acid] |  |  | Acute Toxicity (LD50) [3]: 350 to 400 mg/kg |
| O=C(O)c1ccc(Oc2ccc(Cl)cc2)cn1 [5-(p-Chlorophenoxy)picolinic Acid, 5-(p-chlorophenoxy)picolinic acid] | 28.3% |  | Acute Toxicity (LD50) [3]: 150 to 200 mg/kg; LD50 (Oral LD50): 400 to 600 mg/kg |
| CC(OC(=O)c1ccc(Oc2ccc(Cl)cc2)cn1)OC(=O)C(C)(C)C (stereo not drawn) [α-pivaloyloxyethyl ester of 5-(p-chlorophenoxy)picolinic acid] |  |  | inhibition in vivo at 100 mg/kg [4]: 21.8%; LD50 (Oral LD50): 900 to 1000 mg/kg |
| O=C(O)c1ccc(Oc2ccccc2Cl)cn1 [5-(o-Chlorophenoxy)picolinic Acid, 5-(o-chlorophenoxy)picolinic acid] | 30.1% | 150 to 200 mg/kg | LD50 (Oral LD50): 400 to 600 mg/kg |
| O=C(O)c1ccc(Oc2cccc(Cl)c2)cn1 [5-(m-Chlorophenoxy)picolinic Acid, 5-(m-chlorophenoxy)picolinic acid] | 16.7% | 300 to 400 mg/kg |  |
| O=C(O)c1ccc(OCCCCCl)cn1 [5-(4-Chlorobutoxy)picolinic Acid, 5-(4-chlorobutoxy)picolinic acid] | 23% |  | Acute Toxicity (LD50) [3]: 150 to 200 mg/kg; LD50 (Oral LD50): 900 mg/kg |
| CC(=O)c1ccc(Oc2ccc(C(=O)O)nc2)cc1 [5-(p-Acetylphenoxy)picolinic Acid] | 17.3% | 400 to 500 mg/kg |  |
| O=C(O)c1ccc(OCCCCCl)cn1 [Calcium Salt of 5-(4-Chlorobutoxy)picolinic Acid] [Calcium 5-(4-chlorobutoxy)picolinate] |  |  | Acute Toxicity (LD50) [3]: 800 to 1000 mg/kg |
| NC(=O)c1ccc(Oc2ccccc2C(F)(F)F)cn1 [5-(o-trifluoromethylphenoxy)picolinic acid amide] |  |  | inhibition in vivo at 100 mg/kg [4]: 20.7%; LD50 (Oral LD50): 950 mg/kg |
| COc1ccc(Oc2ccc(C(=O)O)nc2)cc1 [5-(p-Methoxyphenoxy)picolinic Acid, 5-(p-methoxyphenoxy)picolinic acid] | 14.2% | 500 to 600 mg/kg |  |
| O=C(O)c1ccc(Oc2c(Cl)cccc2Cl)cn1 [5-(2,6-Dichlorophenoxy)picolinic Acid] | 23.7% | 150 to 200 mg/kg |  |
| O=C(O)c1ccc(OCCCCC(F)(F)F)cn1 [5-(5,5,5-trifluoropentyloxy)picolinicacid] | 28.7% |  |  |
| NC(=O)c1ccc(Oc2ccc(Cl)cc2)cn1 [5-(p-Chlorophenoxy)picolinic Acid Amide, 5-(p-chlorophenoxy)picolinic acid amide] |  |  | inhibition in vivo at 100 mg/kg [4]: 23.7% |
| NC(=O)c1ccc(Oc2ccccc2Cl)cn1 [5-(o-Chlorophenoxy)picolinic Acid Amide] |  |  | inhibition in vivo at 100 mg/kg [4]: 19.6% |

| SMILES | inhibition in vivo at 100 mg/kg [1, 7] | LD50 at 168 h [2] | also measured |
| --- | --- | --- | --- |
| CCOC(=O)c1ccc(Oc2ccc(Cl)cc2)cn1 [ethyl ester of 5-(p-chlorophenoxy)picolinic acid] |  |  | inhibition in vivo at 100 mg/kg [4]: 23.3% |
| NC(=O)c1ccc(OCCCCCl)cn1 [5-(4-Chlorobutoxy)picolinic Acid Amide, 5-(4-chlorobutoxy)picolinic acid amide] |  |  | inhibition in vivo at 100 mg/kg [4]: 21.5%; LD50 (Oral LD50): 1500 to 1600 mg/kg |
| CN(C)CCOC(=O)c1ccc(OCCCCCl)cn1 [dimethylaminoethyl ester of 5-(4-chlorobutoxy)picolinic acid hydrochloride] |  |  | water solubility (Water solubility): increased water solubility |
| Cl.Cl.Nc1ccc(Oc2ccc(C(=O)O)nc2)cc1 [5-(p-aminophenoxy)picolinic acid dihydrochloride] | 8.3% | 450 to 500 mg/kg |  |
| O=C(Oc1ccc2c(c1)CCC2)c1ccc(Oc2ccc(Cl)cc2)cn1 [indanyl ester of 5-(p-chlorophenoxy)picolinic acid] |  |  | inhibition in vivo at 100 mg/kg [4]: 27.5%; LD50 (Oral LD50): 700 to 800 mg/kg |
| Cc1ccc(Oc2ccc(C(=O)O)nc2)cc1 [5-(p-Methylphenoxy)picolinic Acid, 5-(p-methylphenoxy)picolinic acid] | 17% | 200 to 300 mg/kg |  |
| O=C(O)c1ccc(Oc2ccc(C(F)(F)F)cc2)cn1 [5-(p-trifluoromethylphenoxy)picolinic acid] | 29.3% | 200 to 250 mg/kg |  |
| O=C(O)c1ccc(Oc2ccc(Br)cc2)cn1 [5-(p-Bromophenoxy)picolinic Acid, 5-(p-bromophenoxy)picolinic acid] | 27.5% | 150 to 200 mg/kg |  |
| CCCCOc1ccc(C(=O)O)nc1 [5-n-Butoxy-picolinic Acid, reference compound] | 16.6% | 100 to 150 mg/kg |  |
| O=C(O)c1ccc(Oc2ccccc2C(F)(F)F)cn1 [5-(o-trifluoromethylphenoxy)picolinic acid] | 27.6% | 150 to 200 mg/kg | LD50 (Oral LD50): 400 to 600 mg/kg |
| O=C(Oc1ccc2c(c1)CCC2)c1ccc(Oc2ccccc2C(F)(F)F)cn1 [Indanyl Ester of 5-(o-Trifluoromethylphenoxy)picolinic Acid] |  |  | inhibition in vivo at 100 mg/kg [4]: 26.3% |
| Cc1ccc(Oc2ccc(C(=O)O)nc2)c(C)c1 [5-(2,4-Dimethylphenoxy)picolinic Acid] | 16.9% | 250 to 300 mg/kg |  |
| O=C(O)c1ccc(Oc2ccc(Cl)cc2Cl)cn1 [5-(2,4-Dichlorophenoxy)picolinic Acid] | 24.6% | 150 to 200 mg/kg |  |
| CCCCc1ccc(C(=O)O)nc1 [Fusaric Acid, 5-n-butylpicolinic acid, reference compound] |  | 75 to 100 mg/kg | inhibition in vivo at 100 mg/kg [1]: 15.8%; anti-hypertensive activity (in words) [5]: useful as an anti-hypertensive agent; LD50 value (in words) [6]: low LD50 value |
| O=C(O)c1ccc(OCCCCl)cn1 [5-(3-Chloropropoxy)picolinic Acid, 5-(3-chloropropoxy)picolinic acid] | 18.2% | 150 to 200 mg/kg |  |
| O=C(O)c1ccc(OCCCCC(F)(F)F)cn1 [Calcium Salt of 5-(5,5,5-Trifluoropentyloxy)picolinic Acid] [Calcium 5-(5,5,5-trifluoropentyloxy)picolinate] |  |  | Acute Toxicity (LD50) [3]: 800 to 900 mg/kg |
| O=C(O)c1ccc(Oc2ccc(C(F)(F)F)cc2C(F)(F)F)cn1 [5-(2,4-Ditrifluoromethylphenoxy)picolinic Acid] | 25.5% | 200 to 250 mg/kg |  |
| O=C(O)c1ccc(Oc2cccc(C(F)(F)F)c2)cn1 [5-(m-trifluoromethylphenoxy)picolinic acid] | 20.8% | 500 to 600 mg/kg |  |
